Measured values as given in patent US6143764A, “Quinoline and quinazoline derivatives inhibiting platelet-derived growth factor receptor autophosphorylation and pharmaceutical compositions containing the same” (priority 1995, dated 2000).
pIC50: −log10 of the molar value.

Molecular target: T1, PDGF receptor (Rattus norvegicus, UniProt Q05030)
T1 construct: cultured rat mesangial cells which are known to have the PDGF receptor; endogenous in cells; host or cells: primary mesangial cells cultured from glomeruli of Wistar-Kyoto rats (Charles River Japan), more than 5 passages
Test: PDGF receptor autophosphorylation inhibition in cultured rat mesangial cells
Assay type: cell-based
Details: PDGF-BB 50 ng/ml
Method: 1. Cultivation of rat mesangial cells
The glomerulus-derived adhesive cells were subcultured several times to obtain mesangial cells. The mesangial cells subcultured more than 5 passages were used for the assay.
2.Evaluation of PDGF receptor autophosphorylation inhibition
The mesangial cells were seeded in 24-well flat-bottom microtiter plates and then cultured in the medium containing 10% FCS for 2 days. When the cells were grown to about 3×10^4 cells per well, the medium was changed to the medium containing 0.5% FCS, the cultivation was continued for another 3 days, and then cell growth was arrested. The culture medium was removed, the adhered cells were washed with 500 μl of the medium, and 250 μl of the medium containing 0.1% bovine serum albumin (hereinafter abbreviated to BSA) was then added. A test drug dissolved in 1.38 μl of dimethyl sulfoxide (hereinafter abbreviated to DMSO) was added to this culture medium, and the admixture was incubated at 37° C. for 1 hour. Recombinant human platelet-derived growth factor BB chain (hereinafter abbreviated to PDGF-BB) was dissolved in the medium containing 0.1% BSA, 25 μl per well of the solution was added at final 50 ng/ml, and the incubation was continued at 37° C. for 10 minutes. […] The cells were allowed to stand at 4° C. for 30 minutes for lysis, and the resulting solution was thoroughly admixed with an equal amount of Tris-buffered physiological saline containing 1% sodium dodecyl sulfate (hereinafter abbreviated to SDS). […] After the electrophoresis, proteins in the gel were electrically transferred to a PVDF filter, which was then subjected to Western blotting using monoclonal antibodies against phosphotyrosine. Bands of PDGF receptor (molecular weight: about 180 Kda) which were autophosphorylated due to the addition of PDGF-BB were quantitated by a densitometer. Autophosphorylation rates for individual wells with drugs were calculated by setting measurements for PDGF receptor autophosphorylation in the wells without drugs in the presence and absence of PDGF-BB as 100% and 0%, respectively.

T1 sequence (Q05030 32-1097): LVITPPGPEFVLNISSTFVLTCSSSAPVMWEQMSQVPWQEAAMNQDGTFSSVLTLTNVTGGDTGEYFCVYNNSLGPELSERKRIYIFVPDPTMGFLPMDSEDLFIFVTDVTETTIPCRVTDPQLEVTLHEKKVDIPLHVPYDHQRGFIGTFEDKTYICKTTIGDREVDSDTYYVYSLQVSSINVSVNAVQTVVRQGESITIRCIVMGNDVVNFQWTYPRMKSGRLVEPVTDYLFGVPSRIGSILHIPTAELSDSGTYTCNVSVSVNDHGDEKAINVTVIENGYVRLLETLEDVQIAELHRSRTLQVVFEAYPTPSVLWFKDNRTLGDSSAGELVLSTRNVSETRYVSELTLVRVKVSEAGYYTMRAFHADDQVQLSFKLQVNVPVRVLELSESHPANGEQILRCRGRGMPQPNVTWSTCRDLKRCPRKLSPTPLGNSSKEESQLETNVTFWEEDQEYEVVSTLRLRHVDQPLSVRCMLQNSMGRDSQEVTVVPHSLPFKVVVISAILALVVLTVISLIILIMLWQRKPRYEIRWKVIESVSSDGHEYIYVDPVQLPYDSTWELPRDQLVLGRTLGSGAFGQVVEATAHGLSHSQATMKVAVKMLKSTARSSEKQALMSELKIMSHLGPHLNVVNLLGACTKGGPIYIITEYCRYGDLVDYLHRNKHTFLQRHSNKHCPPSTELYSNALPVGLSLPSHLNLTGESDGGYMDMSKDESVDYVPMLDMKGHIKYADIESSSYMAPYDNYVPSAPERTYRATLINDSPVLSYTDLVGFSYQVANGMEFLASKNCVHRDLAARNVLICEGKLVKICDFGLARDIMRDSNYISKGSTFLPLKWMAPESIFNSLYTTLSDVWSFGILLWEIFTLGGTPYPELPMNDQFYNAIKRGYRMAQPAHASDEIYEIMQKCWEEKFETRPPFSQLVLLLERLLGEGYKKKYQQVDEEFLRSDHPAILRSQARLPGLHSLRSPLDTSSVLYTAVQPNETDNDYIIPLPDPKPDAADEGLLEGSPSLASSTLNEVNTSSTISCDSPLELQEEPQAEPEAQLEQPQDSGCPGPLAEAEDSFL

pIC50	Compound
7.30	COc1cc2nccc(Oc3ccc4[nH]ccc4c3)c2cc1OC [Compound 16, 6,7-Dimethoxy-4-(5-indolyloxy)quinoline]
8.05	COc1cc2nccc(Oc3ccc(NC(=O)Nc4ccc(C(C)C)cc4)cc3)c2cc1OC [Compound 51, N-(4-Isopropylphenyl)-N'-{4-[(6,7-dimethoxy-4-quinolinyl)oxy]phenyl}urea]
8.52	COc1cc2nccc(Oc3ccc(NC(=O)Nc4ccccc4C(F)(F)F)cc3)c2cc1OC [Compound 54]
6.40	COc1cc2nccc(Oc3ccc(NC(=O)C4CCCCC4)cc3)c2cc1OC [Compound 63, N-{4-[(6,7-Dimethoxy-4-quinolinyl)oxy]phenyl}-cyclohexanecarboxamide]
6.89	COc1cc2nccc(Oc3ccc(NC(=O)c4ccc([N+](=O)[O-])cc4)cc3)c2cc1OC [Compound 66, N-{4-[(6,7-Dimethoxy-4-quinolinyl)oxy]phenyl}-(4-nitrophenyl)carboxamide]
6.96	COc1cc2nccc(Oc3ccc(NC(=O)c4ccc(N(C)C)cc4)cc3)c2cc1OC [Compound 67, N-{4-[(6,7-Dimethoxy-4-quinolinyl)oxy]phenyl}-(N,N-dimethylaminophenyl)carboxamide]
6.36	COc1cc2nccc(Oc3ccc(NC(=O)c4ccc(C(C)=O)cc4)cc3)c2cc1OC [Compound 68, N-{4-[(6,7-Dimethoxy-4-quinolinyl)oxy]phenyl}-(4-acetylphenyl)carboxamide]
8.40	COc1cccc(NC(=O)Nc2ccc(Oc3ncnc4cc(OC)c(OC)cc34)cc2)c1 [Compound 114, N-{4-[(6,7-Dimethoxy-4-quinazolinyl)oxy]phenyl}-N'-(3-methoxyphenyl)urea]
8.52	COc1cc2nccc(Oc3ccc(NC(=O)Nc4ccc(C)cc4)cc3)c2cc1OC [Compound 131]
8.30	CCCCNC(=O)Nc1ccc(Oc2ccnc3cc(OC)c(OC)cc23)cc1 [Compound 139, N-n-Butyl-N'-{4-[(6,7-dimethoxy-4-quinolyl)oxy]phenyl}urea]
8.40	COc1cc2nccc(Oc3ccc(NC(=O)Nc4ccccc4)cc3)c2cc1OC [Compound 167, N-{4-[(6,7-Dimethoxy-4-quinolyl)oxy]phenyl}-N'-phenylurea]
8.40	COc1cc2nccc(Oc3ccc(NC(=O)Nc4ccccc4N)cc3)c2cc1OC [Compound 169, N-(2-Aminophenyl)-N'-{4-[(6,7-dimethoxy-4-quinolyl)oxy]phenyl}urea]
8.00	COc1cc2nccc(Oc3ccc(NC(=O)Nc4cccc(N)c4)cc3)c2cc1OC [Compound 172, N-(3-Aminophenyl)-N'-{4-[(6,7-dimethoxy-4-quinolyl)oxy]phenyl}urea]
8.22	CCc1ccc(NC(=O)Nc2ccc(Oc3ccnc4cc(OC)c(OC)cc34)cc2)cc1 [Compound 188, N-(4-Ethylphenyl)-N'-{4-[(6,7-dimethoxy-4-quinolyl)oxy]phenyl}urea]
7.96	COc1cc2nccc(Oc3ccc(NC(=O)NC(=O)c4ccccc4)cc3)c2cc1OC [Compound 189, N-Benzoyl-N'-{4-[(6,7-dimethoxy-4-quinolyl)oxy]phenyl}urea]
7.10	COc1cc2nccc(Oc3ccc(NC(=O)Nc4ccc(C(=O)c5ccccc5)cc4)cc3)c2cc1OC [Compound 195, N-{4-[(6,7-Dimethoxy-4-quinolyl)oxy]phenyl}-N'-(4-phenylcarbonylphenyl)urea]
7.96	COc1ccc(NC(=O)Nc2ccc(Oc3ccnc4cc(OC)c(OC)cc34)cc2)cc1OC [Compound 198, N-(3,4-Dimethoxyphenyl)-N'-{4-[(6,7-dimethoxy-4-quinolyl)oxy]phenyl}urea]
8.05	CCCCNC(=O)Nc1ccc(Oc2ncnc3cc(OC)c(OC)cc23)cc1 [Compound 220, N-(4-[(6,7-Dimethoxy-4-quinazolinyl)oxy]phenyl)-N'-n-butylurea]

The next lines start with the compound.

Compound	pIC50
COc1cccc(Oc2ccnc3cc(OC)c(OC)cc23)c1 [Compound 2, 6,7-Dimethoxy-4-(3-methoxyphenoxy)quinoline]	6.36
COc1cc2nccc(Oc3cccc(C(C)=O)c3)c2cc1OC [Compound 6]	6.35
COc1cc2nccc(Oc3ccc(C(=O)c4ccc(C(F)(F)F)cc4)cc3)c2cc1OC [Compound 29, (4-Trifluoromethylphenyl){4-[(6,7-dimethoxy-4-quinolyl)oxy]phenyl}methanone]	6.10
COc1cc2nccc(Oc3ccc(NC(=O)Nc4ccc([N+](=O)[O-])cc4)cc3)c2cc1OC [Compound 46, N-{4-[(6,7-Dimethoxy-4-quinolinyl)oxy]phenyl}-N'-(4-nitrophenyl)urea]	7.68
CCCCc1ccc(NC(=O)Nc2ccc(Oc3ccnc4cc(OC)c(OC)cc34)cc2)cc1 [Compound 47, N-(4-Butylphenyl)-N'-{4-[(6,7-dimethoxy-4-quinolinyl)oxy]phenyl}urea]	7.37
COc1cc2nccc(Oc3ccc(NC(=O)Nc4ccc(C(C)=O)cc4)cc3)c2cc1OC [Compound 49, N-(4-Acetylphenyl)-N'-{4-[(6,7-dimethoxy-4-quinolinyl)oxy]phenyl}urea]	7.74
COc1cc2nccc(Oc3ccc(NC(=O)Nc4ccc(Oc5ccccc5)cc4)cc3)c2cc1OC [Compound 50, N-{4-[(6,7-Dimethoxy-4-quinolinyl)oxy]phenyl}-N'-(4-phenoxyphenyl)urea]	7.17
COc1cc2nccc(Oc3ccc(NC(=O)Nc4cccc(C(F)(F)F)c4)cc3)c2cc1OC [Compound 53]	8.00
COc1cc2nccc(Oc3ccc(NC(=O)Nc4cccc(C)c4)cc3)c2cc1OC [Compound 55, N-{4-[(6,7-Dimethoxy-4-quinolyl)oxy]phenyl}-N'-(3-methylphenyl)urea]	8.52
CCCCc1ccc(C(=O)Nc2ccc(Oc3ccnc4cc(OC)c(OC)cc34)cc2)cc1 [Compound 69, N-{4-[(6,7-Dimethoxy-4-quinolinyl)oxy]phenyl}-(4-butylphenyl)carboxamide]	7.30
CCCCOc1ccc(C(=O)Nc2ccc(Oc3ccnc4cc(OC)c(OC)cc34)cc2)cc1 [Compound 74, N-{4-[(6,7-Dimethoxy-4-quinolinyl)oxy]phenyl}-(4-butoxyphenyl)carboxamide]	6.47
COc1cc2nccc(Oc3ccc(NC(=O)c4ccc(Br)cc4)cc3)c2cc1OC [Compound 75, N-{4-[(6,7-Dimethoxy-4-quinolinyl)oxy]phenyl}-(4-bromophenyl)carboxamide]	6.74
COc1cc2nccc(Oc3ccc(NC(=O)C4CCCC4)cc3)c2cc1OC [Compound 79, N-{4-[(6,7-Dimethoxy-4-quinolinyl)oxy]phenyl}cyclopentanecarboxamide]	6.47
COc1cc2nccc(Oc3cccc(NC(=O)Nc4ccccc4C(F)(F)F)c3)c2cc1OC [Compound 94]	7.64
COc1ccccc1NC(=O)Nc1ccc(Oc2ncnc3cc(OC)c(OC)cc23)cc1 [Compound 113, N-{4-[(6,7-Dimethoxy-4-quinazolinyl)oxy]phenyl)-N'-(2-methoxyphenyl)urea]	8.40
COc1cc2nccc(Oc3ccc(NC(=O)NC(C)C)cc3)c2cc1OC [Compound 135]	7.37
COc1cc2nccc(Oc3ccc(NC(=O)Nc4ccc(SC)cc4)cc3)c2cc1OC [Compound 163]	8.30
COc1cc2nccc(Oc3ccc(NC(=O)Nc4ccccc4C(C)C)cc3)c2cc1OC [Compound 166, N-(2-Isopropylphenyl)-N'-{4-[(6,7-dimethoxy-4-quinolyl)oxy]phenyl}urea]	7.96
COc1cc2nccc(Oc3ccc(NC(=O)Nc4cccc5ccccc45)cc3)c2cc1OC [Compound 174, N-{4-[(6,7-Dimethoxy-4-quinolyl)oxy]phenyl}-N'-(1-naphthyl)urea]	8.70
COc1cc2nccc(Oc3ccc(NC(=O)Nc4ccccc4-c4ccccc4)cc3)c2cc1OC [Compound 175, N-(2-Biphenyl)-N'-{4-[(6,7-dimethoxy-4-quinolyl)oxy]phenyl}urea]	8.22
COc1cc2nccc(Oc3ccc(NC(=O)Nc4cccc(N(C)C)c4)cc3)c2cc1OC [Compound 192]	8.40
CCCCCCNC(=O)Nc1ccc(Oc2ccnc3cc(OC)c(OC)cc23)cc1 [Compound 196, N-Hexyl-N'-{4-[(6,7-dimethoxy-4-quinolyl)oxy]phenyl}urea]	7.51
COc1cc2nccc(Oc3ccc(NC(=O)Nc4ccc5c(c4)CCC5)cc3)c2cc1OC [Compound 197, N-(5-Indanyl)-N'-{4-[(6,7-dimethoxy-4-quinolyl)oxy]phenyl}urea]	8.00
COc1cc2nccc(Oc3ccc(NC(=O)Nc4ccc5c(c4)OCCO5)cc3)c2cc1OC [Compound 199, N-(3,4-Ethylenedioxyphenyl)-N'-{4-[(6,7-dimethoxy-4-quinolyl)oxy]phenyl}urea]	8.52
COc1ccc(NC(=O)N(C)c2ccc(Oc3ccnc4cc(OC)c(OC)cc34)cc2)cc1 [Compound 200, N-Methyl-N-{4-[(6,7-dimethoxy-4-quinolyl)oxy]phenyl}-N'-(4-methoxyphenyl)urea]	8.40
